Test results as given in patent US20200333357A1, “NOVEL TFEB PATHWAY AGONISTS FOR METABOLIC DISEASES AND AGEING” (The Board of Regents of the University of Texas System, priority 2017, published 2020).
“Also recorded” adds a separate entry of the source. Structures can show the parent of a compound that is named as a salt.

Legend:
mTORC1 = test: TSC2 dependence of mTORC1 inhibition and TFEB activation in p53-/- and p53-/-, TSC2-/- MEFs; type: cell-based, mouse; settings: p53-/- vs p53-/-
HeLa cells = test: Cellular ROS level (CellROX Green); type: cell-based, human; settings: 4 hrs
Source text: SFIGS. 5A-I. Small-molecule activators of TFEB engage different sources of Ca. (SFIG. 5A) HeLa cells were pretreated with or without N-acetyl-cysteine (NAC) for 1 hr and then treated with tert-butyl hydroperoxide (TBHP) or AD for 4 hrs. TBHP and NAC were used as positive and negative controls. A ROS-sensitive DNA dye CellROX Green was used to detect cellular ROS levels after these treatments. Endogenous TFEB localization was also shown. (SFIG. 5B) Quantification of the fluorescent intensity of CellROX Green in cells treated as in a was done by a plate reader. (SFIG. 5C) Quantification of endogenous TFEB nuclear translocation in SFIG. 5A. (SFIG. 5D) Cells were pretreated with or without 25 μM IP3R inhibitor Xestosporine C (Xesto) for 1 hr and then treated with DG, AD and IKA for indicated time. Quantification of TFEB translocation was shown in SFIG. 5E-G (graphs represent mean±s.d. **p<0.01, ***p<0.001, ****p<0.0001). (SFIG. 5H-I) RNA-interference were used to knock down inositol […] receptor type 1 (IP3R1) in GFP-TFEB cells before they were treated with DG, AD and IKA. siLONRF1 was used as a negative control. TFEB translocation percentage was quantified from images as shown in SFIG. 5I (mean±s.d. for n=3 independent experiments, ****p<0.0001). Scale bar, 20 μm.

NFAT = test: Endogenous NFAT nuclear translocation; type: cell-based; settings: high or intermediate doses
Method: SFIGS. […] (SFIG. 4B) Representative images of GFP-TFEB HeLa cells treated with 3.3 μM AD or in combination with 5 μM FK506, 10 μM CsA or both. […] Scale bar, 20 μm. […] Scale bar, 20 μm. […] Scale bar, 20 μm. (SFIGS. 4F-G) Immunoblots of wide-type HeLa cells treated with various doses (starting from 3.3 μM with a 3-fold dilution, and right-most lane is DMSO) of AD and IKA.

TFEB = test: GFP-TFEB nuclear translocation (high-content screen, dose-response, confocal imaging); type: cell-based, human; settings: for effect of calcineurin inhibition (FK506, CsA, siPPP3CB) on TFEB activation: 5 μM FK506, 10 μM CsA or siPPP3CB; for effect of Compound C (AMPK inhibitor) and STO-609 (CaMKKβ inhibitor) on induced TFEB nuclear translocation: 10 μM compound C, 25 μM STO-609, 4 hr; for effect of IP3R inhibitor Xestosporin C or siIP3R1 on induced TFEB nuclear translocation: 25 μM Xesto 1 hr pretreatment, time-dependent; for effect of GPN pretreatment (lysosomal Ca2+ depletion) on induced TFEB nuclear translocation: 200 μM GPN, 30 min pretreatment; for hit status in the TFEB screen overlapping with the autophagy (GFP-LC3) screen: compounds added for 4 hr, overlap with top 30 hits of autophagy screen; for effect of RNAi-mediated MCOLN1 depletion on induced TFEB nuclear translocation: siMCOLN1
Method: GFP-TFEB HeLa cells were seeded in 384-well plates. Compounds were added for 4 hr the following day. Bafilomycin A1 (250 nM) treated cells were used as positive controls and DMSO-treated cells as negative controls. […] Images were collected using 405 nm and 488 nm laser lines with DAPI and FITC emission filters. Images were analyzed using the GE IN Cell Analyzer Workstation software. Briefly, nuclei were segmented using the Hoechst channel and the cytoplasm was segmented using the GFP channel. For each cell, the mean GFP intensity in each compartment was measured and used to calculate the nuclear to cytoplasmic (N/C) TFEB-GFP ratio. The same method as mentioned above was used to generate the top 30 compounds with highest condensed activity values and robust Z score values.
GFP-TFEB HeLa cells treated with compounds or DMSO were fixed and stained with Hoechst. Images from at least 3 different fields per sample were acquired using a 40× objective on a Zeiss confocal microscope and analyzed with ImageJ. 20-30 cells were evaluated from each image for each sample, and 3 independent experiments were performed to generate the graphed values.

HepG2 cells = test: Oleic acid-induced lipid accumulation (oil red O staining); settings: 1 mM oleic acid; 370 nM DG, 3.3 μM AD and IKA
HLH-30 = test: HLH-30::GFP nuclear localization assay; type: in vivo, C. elegans; settings: dal-1(dt2300); sqIs19 worms, 5 μM IKA
Method: Adult TX1941 dal-1(dt2300); sqIs19 [hlh-30p::hlh-30::GFP rol-6(+)] worms were placed on NGM plates with either a test chemical or 5% DMSO. GFP was scored at various intervals on live worms without mounting using a Zeiss Axio Zoom. V16 fluorescence dissecting microscope equipped with Axiocam 503. No difference was observed between 2 hour and overnight treatment.

C. elegans = C. elegans lifespan analysis; type: in vivo; settings: for Lifespan increase (%): vs DMSO
Method: The C. elegans mutant strain, fem-1(hc17ts) IV; dal-1(dt2300), obtained from the Caenorhabditis Genetics Center at the University of Minnesota, was cultured on Nematode Growth Medium (NGM) plates seeded with the E. coli strain OP50 and consistently maintained at 15° C. For lifespan assays, a total of 12 age-synchronized nematode adults were transferred to eight replicate NGM plates and grown at 25° C. to ensure sterility. Age synchronization was achieved through standard hypochlorite treatments. Eggs were placed on NGM plates supplemented with Streptomycin (100 μg ml-1) and seeded with the E. coli strain, OP50. For compound testing, 200 μl of 10 μM Ikarugamycin in 5% DMSO was spotted directly onto OP50 seeded NGM plates. Control plates were prepared by spotting 200 μl of 5% DMSO directly onto OP50 seeded NGM plates. For the first 10 days of adulthood, C. elegans were scored once a day as dead or alive by touch stimulation with a platinum wire. After day 10, animals were scored every other day. Nematodes which crawling off the agar plates were censored from subsequent lifespan analysis. Kaplan-Meier statistical analysis was performed using Prism 7 software. Lifespan experiments were done on two separate occasions.

[1] = Body weight of normal-diet-fed (lean) mice; type: in vivo, mouse; settings: 2.5 mg/kg DG

## CCCCC(CC)CNC(=N)NC(=N)NCCCCCCNC(=N)NC(=N)NCC(CC)CCCC (stereo not drawn) [AD, alexidine dihydrochloride]
mTORC1
  dependence of mTORC1 inhibition / TFEB activation on TSC2: TSC2-dependent
HeLa cells
  ROS production: comparable ROS production
NFAT
  nuclear translocation of NFAT: induced dose-dependent nuclear translocation
TFEB
  reversal of effect on TFEB by cell-permeable pyruvate: reversed
  effect of calcineurin inhibition (FK506, CsA, siPPP3CB) on TFEB activation: block TFEB activation
  effect of Compound C (AMPK inhibitor) and STO-609 (CaMKKβ inhibitor) on induced TFEB nuclear translocation: inhibited
  effect of IP3R inhibitor Xestosporin C or siIP3R1 on induced TFEB nuclear translocation: attenuated
  effect of GPN pretreatment (lysosomal Ca2+ depletion) on induced TFEB nuclear translocation: sufficient to disrupt TFEB nuclear translocation
  effect of RNAi-mediated MCOLN1 depletion on induced TFEB nuclear translocation: suppressed
TFEB; dihydrochloride
  hit status in the TFEB screen overlapping with the autophagy (GFP-LC3) screen: top 18 hits; also recorded: top scoring hits
HepG2 cells
  oleic acid-induced lipid accumulation in human hepatocytes: significantly ameliorated

## CC[C@H]1[C@@H]2C=C[C@@H]3[C@H]4C/C=C\C(=O)NCCC[C@@H]5NC(=O)/C(=C(O)/C=C/[C@@H]4C[C@@H]3[C@H]2C[C@H]1C)C5=O [IKA, ikarugamycin]
HLH-30
  nuclear accumulation of GFP-tagged HLH30 within intestinal cells in adults: induce nuclear accumulation
mTORC1
  dependence of mTORC1 inhibition / TFEB activation on TSC2: TSC2-dependent
NFAT
  nuclear translocation of NFAT: not
TFEB
  reversal of effect on TFEB by cell-permeable pyruvate: reversed
  effect of calcineurin inhibition (FK506, CsA, siPPP3CB) on TFEB activation: calcineurin independent
  effect of Compound C (AMPK inhibitor) and STO-609 (CaMKKβ inhibitor) on induced TFEB nuclear translocation: inhibited
  effect of IP3R inhibitor Xestosporin C or siIP3R1 on induced TFEB nuclear translocation: attenuated
  effect of GPN pretreatment (lysosomal Ca2+ depletion) on induced TFEB nuclear translocation: almost no effect
TFEB; 300 nM TG, 30 min
  effect of thapsigargin (ER Ca2+ depletion) on induced TFEB nuclear translocation: selectively decreased
C. elegans; 5 μM IKA vs DMSO
  lifespan of fem-1(−);dal-1(−) animals: significantly extended
C. elegans; 1st experiment
  75th %: 16 days
  Mean Lifespan ± s.e.m: 21.8 ± 0.6 days
  Median lifespan: 22 days
  Lifespan increase (%): 22.2%
C. elegans; 2nd experiment
  Mean Lifespan ± s.e.m: 23.0 ± 0.5 days
  Median lifespan: 24 days
  Lifespan increase (%): 22.3%

## C[C@H]1O[C@@H](O[C@H]2[C@@H](O)C[C@H](O[C@H]3[C@@H](O)C[C@H](O[C@H]4CC[C@@]5(C)[C@H](CC[C@@H]6[C@@H]5C[C@@H](O)[C@]5(C)[C@@H](C7=CC(=O)OC7)CC[C@]65O)C4)O[C@@H]3C)O[C@@H]2C)C[C@H](O)[C@@H]1O [DG, digoxin, reference compound]
[1]
  body weight of lean mice: did not alter
NFAT
  nuclear translocation of NFAT: not
TFEB
  reversal of effect on TFEB by cell-permeable pyruvate: not
  effect of Compound C (AMPK inhibitor) and STO-609 (CaMKKβ inhibitor) on induced TFEB nuclear translocation: not
  effect of IP3R inhibitor Xestosporin C or siIP3R1 on induced TFEB nuclear translocation: attenuated
  effect of GPN pretreatment (lysosomal Ca2+ depletion) on induced TFEB nuclear translocation: sufficient to disrupt TFEB nuclear translocation
  hit status in the TFEB screen overlapping with the autophagy (GFP-LC3) screen: top 18 hits; also recorded: top scoring hits
  effect of RNAi-mediated MCOLN1 depletion on induced TFEB nuclear translocation: suppressed
TFEB; compound at EC50
  effect of calcineurin perturbation on TFEB activation: inhibited to some extent
TFEB; compound at EC90
  effect of calcineurin perturbation on TFEB activation: resistant
HepG2 cells
  oleic acid-induced lipid accumulation in human hepatocytes: significantly ameliorated
